Molecular target: T1, human GPR119 (hGPR119) (Homo sapiens, UniProt Q8TDV5)
T1 construct: expressed in transfected cells
T1 sequence (Q8TDV5 1-335): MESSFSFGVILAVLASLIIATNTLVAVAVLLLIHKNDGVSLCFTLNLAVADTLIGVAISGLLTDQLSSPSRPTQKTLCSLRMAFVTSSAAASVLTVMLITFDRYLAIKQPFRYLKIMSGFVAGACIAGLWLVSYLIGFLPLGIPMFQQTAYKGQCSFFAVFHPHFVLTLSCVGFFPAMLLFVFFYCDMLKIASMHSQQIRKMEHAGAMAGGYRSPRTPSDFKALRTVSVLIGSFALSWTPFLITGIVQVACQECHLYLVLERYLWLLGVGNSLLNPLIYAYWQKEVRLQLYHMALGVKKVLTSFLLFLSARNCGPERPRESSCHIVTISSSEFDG
Experiment: cAMP accumulation assay (cAMP Gs dynamic HTRF kit)
Type: cell-based
Settings: CHO-K1 cells stably expressing hGPR119, 4-parameter fit; for Emax: 1 h, % activity normalized to Max/Min controls; for EC50: cAMP accumulation
How it was run: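 Read-out is HTRF 665/620 nm ratio after 1 h detection at ambient temperature, converted to % activity against positive and negative controls, EC50 and Max activity by 4-parameter fit. Compounds were titrated onto ~10,000 thawed hGPR119-CHO-K1 cells/well for 60 min at 37° C/5% CO2.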

| Structure (SMILES) | Emax [%] | EC50 [nM] |
| --- | --- | --- |
| O=C(Cc1ccc(OCCCC2CCN(c3ncc(Cl)cn3)CC2)cc1F)N1CC[C@@H](CNCC(CO)(CO)CO)C1 [Example 147, 2-[4-[3-[1-(5-chloropyrimidin-2-yl)-4-piperidyl]propoxy]-2-fluoro-phenyl]-1-[(3S)-3-[[[3-hydroxy-2,2-bis(hydroxymethyl)propyl]amino]methyl]pyrrolidin-1-yl]ethanone] | 100 to 130 | ≤ 100 |
| O=C(CC1CN(C(=O)Cc2ccc(OCCCC3CCN(c4ncc(Cl)cn4)CC3)cc2F)C1)NCCS(=O)(=O)O [Example 176, 2-[[2-[1-[2-[4-[3-[1-(5-chloropyrimidin-2-yl)-4-piperidyl]propoxy]-2-fluoro-phenyl]acetyl]azetidin-3-yl]acetyl]amino]ethanesulfonic acid] | 100 to 130 | 100 to 1000 |
| CCOc1cnc(N2CCC(CCCOc3ccc(CC(=O)N4CC[C@@H](CNCC(O)(CO)CO)C4)c(F)c3)CC2)nc1 [Example 153, 2-[4-[3-[1-(5-ethoxypyrimidin-2-yl)-4-piperidyl]propoxy]-2-fluoro-phenyl]-1-[(3S)-3-[[[2,3-dihydroxy-2-(hydroxymethyl)propyl]amino]methyl]pyrrolidin-1-yl]ethanone] | ≥ 130 | ≤ 100 |
| O=C(Cc1ccc(OCCCC2CCN(c3ncc(Cl)cn3)CC2)cc1F)NCCCCC(=O)NC(CO)CO [Example 23, 5-[[2-[4-[3-[1-(5-chloropyrimidin-2-yl)-4-piperidyl]propoxy]-2-fluoro-phenyl]acetyl]amino]-N-[2-hydroxy-1-(hydroxymethyl)ethyl]pentanamide] | ≥ 130 | 100 to 1000 |
| O=C(Cc1ccc(OCCCC2CCN(c3ncc(Cl)cn3)CC2)cc1F)N1CC(CNCC(O)(CO)CO)C1 [Example 43, 2-[4-[3-[1-(5-chloropyrimidin-2-yl)-4-piperidyl]propoxy]-2-fluoro-phenyl]-1-[3-[[[2,3-dihydroxy-2-(hydroxymethyl)propyl]amino]methyl]azetidin-1-yl]ethanone] | 100 to 130 | ≤ 100 |
| CCOc1cnc(N2CCC(CCCOc3cc(F)c(CC(=O)N4CC[C@@H](CNCC(O)(CO)CO)C4)c(F)c3)CC2)nc1 [Example 156, 2-[4-[3-[1-(5-ethoxypyrimidin-2-yl)-4-piperidyl]propoxy]-2,6-difluoro-phenyl]-1-[(3S)-3-[[[2,3-dihydroxy-2-(hydroxymethyl)propyl]amino]methyl]pyrrolidin-1-yl]ethanone] | ≥ 130 | ≤ 100 |
| CCOc1cnc(N2CCC(CCCOc3ccc(CC(=O)N4CC[C@@H](CNCC(CO)(CO)CO)C4)c(F)c3)CC2)nc1 [Example 154, 2-[4-[3-[1-(5-ethoxypyrimidin-2-yl)-4-piperidyl]propoxy]-2-fluoro-phenyl]-1-[(3S)-3-[[[3-hydroxy-2,2-bis(hydroxymethyl)propyl]amino]methyl]pyrrolidin-1-yl]ethanone] | 100 to 130 | ≤ 100 |
| O=C(NC(CO)(CO)CO)[C@@H]1CCN(C(=O)Cc2ccc(OCCCC3CCN(c4ncc(Cl)cn4)CC3)cc2F)C1 [Example 102, (3R)-1-[2-[4-[3-[1-(5-chloropyrimidin-2-yl)-4-piperidyl]propoxy]-2-fluoro-phenyl]acetyl]-N-[2-hydroxy-1,1-bis(hydroxymethyl)ethyl]pyrrolidine-3-carboxamide] | 100 to 130 | ≤ 100 |
| O=C(Cc1c(F)cc(OCCCC2CCN(c3ncc(Cl)cn3)CC2)cc1F)N1CC[C@@H](CNCC(CO)(CO)CO)C1 [Example 151, 2-[4-[3-[1-(5-chloropyrimidin-2-yl)-4-piperidyl]propoxy]-2,6-difluoro-phenyl]-1-[(3S)-3-[[[3-hydroxy-2,2-bis(hydroxymethyl)propyl]amino]methyl]pyrrolidin-1-yl]ethanone] | ≥ 130 | ≤ 100 |
| O=C(Cc1ccc(OCCCC2CCN(c3ncc(Cl)cn3)CC2)cc1F)NCCCC(=O)NC(CO)(CO)CO [Example 22, 4-[[2-[4-[3-[1-(5-chloropyrimidin-2-yl)-4-piperidyl]propoxy]-2-fluoro-phenyl]acetyl]amino]-N-[2-hydroxy-1,1-bis(hydroxymethyl)ethyl]butanamide] | ≥ 130 | 100 to 1000 |

From patent US20230061736A1, “GPR119 AGONISTS” (Kallyope, Inc., priority 2019, published 2023)
